From patent EP4711370A1, “DEUTERATED CAMPTOTHECIN COMPOUND, AND PREPARATION THEREFOR AND USE THEREOF” (Shanghai Qilu Pharmaceutical Research and Development …, priority 2023, dated 2024) come the findings set out here.

One data set can be described thus: Pharmacokinetics in rats. Type of data set: in vivo, SD rats. Conditions: 3 mg/kg, Rat PK (IV, 3 mpk), single injection, plasma, Formulation A. Here is the method: Objective: To evaluate the pharmacokinetic characteristics of the compounds of the present disclosure in rats.
SD rats (purchased from Beijing Vital River Laboratory Animal Technology Co., Ltd.) were used, with 6 rats per group (half male and half female), randomly grouped. A single injection of the sample (Formulation A: 5% DMSO + 95% (15% sulfobutyl-β-cyclodextrin-normal saline), diluted according to the dose) was administered. Blood samples were collected at crossover time points: before administration and at 5 min, 30 min, 1 h, 2 h, 4 h, 6 h, 8 h, 10 h, and 24 h after administration. Plasma was collected, and the sample concentration in plasma was detected by LC-MS. Table 3-1. PK parameters of the compounds of the present disclosure in rats

Another data set can be described thus: Pharmacokinetics in mice. Particulars: 3 mg/kg, Mouse PK (IV, 3 mpk), single injection, plasma. Type of data set: in vivo, Balb/c mice. The text has this:
Objective: To evaluate the pharmacokinetic characteristics of the compounds of the present disclosure in mice.
Balb/c mice were taken, with 12 mice per group (half male and half female), randomly grouped, and administered a single injection of the sample (Formulation A: 5% DMSO + 95% (15% sulfobutyl-β-cyclodextrin-normal saline), Formulation B: 5% DMSO-10% Solutol HS 15-85% normal saline, diluted according to the dose). Blood samples were collected at crossover time points, including before administration and at 5 min, 30 min, 1 h, 2 h, 4 h, 6 h, 8 h, 10 h, and 24 h after administration. Plasma was collected, and the sample concentration in plasma was detected by LC-MS. Table 2-1. PK parameters of the compounds of the present disclosure in mice

Data set [1] can be described thus: Repeated administration toxicity experiment in rats. Type of data set: in vivo, SD rats. Conditions: for Clinical observation: course after ataxia / Clinical observation: animals showed ataxia immediately after administration / Clinical observation: died during recovery (among animals with ataxia) / Body weight / food intake: tail vein injection for 7 consecutive days; for Clinical observation: animals showed ataxia immediately after administration / Clinical observation: died during recovery (among animals with ataxia): main trial group + TK group; for gross dissection: lungs: gross dissection on D8 after administration; for Body weight / food intake: 0.3 mg/kg and 1.0 mg/kg, Compound 2 stated relative to Dxd at the same dose. The procedure: Test sample preparation: The test sample was weighed according to the predetermined weight into a glass vial. First, 1 mL of DMSO was added and mixed until the test sample was dissolved, followed by the addition of 1 mL of Solutol HS-15.
SD rats (purchased from Beijing Vital River) were used as test animals. […] During the acclimation period, one cage-side observation was conducted daily; during the administration period, all animals were subjected to clinical observations twice daily (morning and afternoon). Reactions in various aspects, including the skin, fur, eyes (sclera), ears, nose, oral cavity, chest, abdomen, urogenital area, limbs, as well as respiration, movement, urination, defecation (including urine and feces color), and behavioral changes, were recorded. Daily weight data of the main test group animals were documented. For animals scheduled for dissection, terminal body weight (fasted) was measured before dissection. The food intake of the test animals was also recorded.
At the end of the administration, gross dissection was performed on D8 after administration.

A short description of data set [2]: In vitro plasma stability. Type of data set: in vitro ADME. Conditions: 37°C, 5 µM. Here is the method:
398 µL of plasma was taken and preheated to 37°C, then co-incubated for 15 minutes. 2 µL of the sample solution was added to the plasma to prepare a final sample concentration of 5 µM. The above solution was co-incubated at 37°C, and 50 µL aliquots were taken at 0, 15, 30, 60, and 120 minutes, followed by the addition of 450 µL of ice-cold acetonitrile (containing the internal standard). The solution was vortexed for 10 minutes, centrifuged, and the remaining content of the parent substrate was detected by the LC-MS/MS method. For specific results, refer to Table 4-1. Table 4-1. Plasma stability of the compounds of the present disclosure

The test system of data set [3] is MDA-MB-453 (human breast cancer cells). The experiment in a line: In vitro antitumor activity (cell proliferation inhibition, CellTiter-Glo). Type of data set: cell-based. Particulars: MDA-MB-453 cells, 48 hours of incubation. The text has this:
(§1) Objective: To detect the in vitro inhibitory activity of the compounds of the present disclosure against NCI-N87 (human gastric cancer cells), Calu-3 (human lung adenocarcinoma cells), MDA-MB-453 (human breast cancer cells), KPL-4 (human breast cancer cells), or MDA-MB-468 (human breast cancer cells).
(§2) Tumor cells in the logarithmic growth phase, including NCI-N87 (source: ATCC, catalog number: CRL-5822), Calu-3 (source: ATCC, catalog number: HTB-55), MDA-MB-453 (source: ATCC, catalog number: HTB-131), KPL-4 (source: Nanjing Cobioer Biosciences, catalog number: CBP60379), or MDA-MB-468 (source: ATCC, catalog number: HTB-132), were seeded into cell plates at a density of 5,000 cells/well. The cell plates were then incubated in a 37°C, 5% CO2 cell culture incubator for 12-16 hours. 100 µL of sample (starting at 10 µM, 4-fold dilution, 10 concentrations) was added to each well. After gentle shaking, the plates were placed in the incubator for further incubation. After 48 hours of incubation, 70 µL of CellTiter-Glo™ (Promega, catalog number: G7572) working solution was added, gently shaken to lyse the cells, and the plates were read on a microplate reader. The cell proliferation inhibition rate was calculated using the following formula: cell proliferation inhibition rate = (1-sample well/control well)×100%. GraphPad Prism 8.0 software was used to plot the Log value of sample concentration as the x-axis and Cytotoxicity% as the y-axis. The data were analyzed by Nonlinear regression (curve fit) to obtain the IC50 values for each sample, with specific results shown in Tables 1-1 and 1-2. Table 1-1. In vitro activity test results of the compounds of the present disclosure
For orientation: ATP-based viability assays read luminescence as a measure of living cells.

The test system of data set [4] is Calu-3 (human lung adenocarcinoma cells). Described as above. Type of data set: cell-based. Conditions: Calu-3 cells, 48 hours of incubation.
Text: as §1, §2

Data set [5] concerns NCI-N87 (human gastric cancer cells). The data set is described as above. Type of data set: cell-based. Particulars: 48 hours of incubation.
Text: as §1, §2

Data set [6] concerns MDA-MB-468 (human breast cancer cells). Described as above. Type of data set: cell-based. Conditions: MDA-MB-468 cells, 48 hours of incubation.
Text: as §1, §2

Data set [7] concerns KPL-4 (human breast cancer cells). The description is as above. Type of data set: cell-based. Conditions: KPL4, KPL-4 cells, 48 hours of incubation.
Text: as §1, §2

Where [8] appears, read: both sexes, Balb/c, Formulation A (5% DMSO + 95% (15% sulfobutyl-β-cyclodextrin-normal saline)).
[9] abbreviates: in vivo, Formulation B (5% DMSO-10% Solutol HS 15-85% normal saline).
Setting [10] is: in vivo, Formulation A (5% DMSO + 95% (15% sulfobutyl-β-cyclodextrin-normal saline)).

In the case of `CC[C@@]1(O)C(=O)OCc2c1cc1n(c2=O)Cc2c-1nc1cc(F)c(C)c3c1c2[C@@H](NC(=O)CO)CC3` [Dxd], in the data set “Pharmacokinetics in rats” (both sexes, SD), the AUC(0-inf) (usually total exposure, with the tail of the curve extrapolated) turned out to be 352 ng·h/mL; the Cmax (usually the maximum level reached in the sampled fluid or tissue) was determined as 621 ng/mL; the clearance (usually the volume of plasma or blood freed of the substance per unit of time) is 144 mL/min/kg; the half-life (as a rule, the time needed for the level to fall by half in the phase considered) was 70.3 min. Also, in the data set “Pharmacokinetics in mice” (setting [8]), the Cmax was 521 ng/mL and the half-life was 70.2 min. Also, in data set [1] (0.3 mpk dose group), the “Clinical observation: course after ataxia” value (“Clinical observation: course” below) was “the other rats gradually recovered”, the “Clinical observation: animals showed ataxia immediately after administration” value (“Clinical observation … after administration” below) is given as 31% and the “Clinical observation: died during recovery (among animals with ataxia)” value turned out to be 40%. In data set [1] (1 mpk dose group), the “Clinical observation: course” value is listed as “the other rats gradually recovered”, the “Clinical observation … after administration” value was 31% and the “Clinical observation: died during recovery (among animals with ataxia)” value is on record as 40%. For the same compound, in data set [1], the “gross dissection: lungs” value was “Focal/punctate dark red discoloration was observed in the lungs of some deceased rats”, the Body weight entry is listed as “Slow weight gain/weight loss;” and the food intake result is “Decreased food intake”.
For the compound `[2H]C1([2H])OC(=O)[C@](O)(CC)c2cc3n(c(=O)c21)Cc1c-3nc2cc(F)c(C)c3c2c1[C@@H](NC(=O)C[C@@H](C)O)CC3` [Compound 5], in the data set “Pharmacokinetics in mice” (setting [9]), the peak level (Cmax) was 3520 ng/mL. In addition, the half-life in the data set “Pharmacokinetics in mice” (setting [9]) was 40.4 min. Besides, the “Residual content of parent toxin at 120 minutes (relative to 0 minutes)” value (shortened to “Residual content … (relative to 0 minutes)”) in [2] (CD1 mouse plasma) worked out at 96.02%; in data set [2] (Human plasma), 107.73%. Besides, the IC50 (commonly the concentration that inhibits the measured activity by half) in data set [3] was found to be 94.6 nM; in data set [4], 32.9 nM; in data set [5] it was 9.18 nM; in data set [6], 1.3 nM.
On to `[2H]C1([2H])OC(=O)[C@](O)(CC)c2cc3n(c(=O)c21)Cc1c-3nc2cc3c(cc2c1CCCO)OCO3` [Compound 12], for which the IC50 amounted to 7.29 nM in data set [5], 7.05 nM in [7] and 1.7 nM in data set [6].
Compound `[2H]C1([2H])OC(=O)[C@](O)(CC)c2cc3n(c(=O)c21)Cc1c-3nc2cc(F)c(C)c3c2c1[C@@H](NC(=O)[C@H](O)C1CC1)CC3` [Compound 3] displayed a Cmax in the data set “Pharmacokinetics in mice” (setting [9]) of 4300 ng/mL. In the data set “Pharmacokinetics in mice” (setting [9]), this compound showed a half-life of 36.4 min. Besides, the “Residual content … (relative to 0 minutes)” value is on record as 104.97% in data set [2] (CD1 mouse plasma) and 105.54% in [2] (Human plasma). The half-maximal inhibitory concentration (IC50) in data set [3] came out at 40.3 nM; in data set [4] it was 17.1 nM; in data set [5] it was 4.37 nM; in [6], 0.97 nM.
On to `[2H]C1([2H])OC(=O)[C@](O)(CC)c2cc3n(c(=O)c21)Cc1c-3nc2cc(F)c(C)c3c2c1[C@@H](NC(=O)C[C@H](C)O)CC3` [Compound 6], for which, in the data set “Pharmacokinetics in mice” (setting [9]), the Cmax was found to be 2580 ng/mL. The half-life in the data set “Pharmacokinetics in mice” (setting [9]) is 40.7 min. Further, the “Residual content … (relative to 0 minutes)” value in [2] (CD1 mouse plasma) stood at 105.93%; in [2] (Human plasma), 94.89%. The IC50 in data set [3] stood at 121 nM; in [4], 46.6 nM; in data set [5], 13.3 nM; in data set [6], 3.11 nM.
In “Pharmacokinetics in rats” (in vivo), `[2H]C1([2H])OC(=O)[C@](O)(CC)c2cc3n(c(=O)c21)Cc1c-3nc2cc(F)c(C)c3c2c1[C@@H](NC(=O)CO)CC3` [Compound 2] gave a total exposure AUC(0-inf) of 218 ng·h/mL, a peak concentration (Cmax) of 406 ng/mL, a clearance of 235 mL/min/kg and a half-life of 39.7 min. In “Pharmacokinetics in mice” (setting [10]), the Cmax is 449 ng/mL and the half-life was 27.3 min. For the same compound, in [1] (0.3 mpk dose group), the “Clinical observation: course” value is given as “then gradually recovered” and the “Clinical observation … after administration” value was found to be 13%. Besides, in [1] (1 mpk dose group), the “Clinical observation: course” value is recorded as “then gradually recovered” and the “Clinical observation … after administration” value is listed as 25%. Besides, the “average food intake, ♀ rats” value in data set [1] (female rats, compared with the control (Dxd) group at the same dose) is reported as “For ♀ rats, the average food intake in the Compound 2 group was higher than that in the control group at the same dose;”. In [1], the “gross dissection: lungs” value is given as “no such pathological changes were found in any dose group”; the Body weight result is “At the same dose, the effects of Compound 2 and Dxd on rat body weight and food intake were generally comparable;”; the food intake result is “At the same dose, the effects of Compound 2 and Dxd on rat body weight and food intake were generally comparable;”. This compound also returned an IC50 in data set [3] of 114 nM. The compound also showed an IC50 in data set [4] of 27.1 nM. The compound further showed a half-maximal inhibitory concentration (IC50) in data set [5] of 7.17 nM. Further, in data set [6], the midpoint of inhibition, the IC50, lay at 0.98 nM.
As for `[2H]C1([2H])OC(=O)[C@](O)(CC)c2cc3n(c(=O)c21)Cc1c-3nc2cc(F)c(C)c3c2c1[C@@H](NC(=O)[C@@H](O)C1CC1)CC3` [Compound 4], the IC50 in [3] came out at 55.3 nM; in [4], 19.3 nM; in [5] it was 4.06 nM; in data set [6], 0.88 nM.
